Patent publication US9102620B2, “Deuterated N-ethyl-N-phenyl-1,2-dihydro-4-hydroxy-5-chloro-1-methyl-2-oxoquinoline-3-carboxamide, salts and uses thereof” (TEVA PHARMACEUTICAL INDUSTRIES, LTD., priority 2010, dated 2015)
Where “and” joins values, the source holds several entries; their conditions need not be identical. Equal values may be shown once. Read-outs that look alike come from different tables or passages of the source.

What was measured:
MOG induced EAE = MOG induced EAE in C57BL/6 mice; type: in vivo; settings: daily; for Mortality: Day 0 to Day 30; for % inhibition 1 (according to incidence) / % inhibition 2 (according to MMS) / % inhibition 3 (according to GMS): compared to vehicle; for Incidence: sick mice/group
CYP1A2 mRNA = settings: human, 3 days; for mRNA Percent positive control, CYP1A2: hepatocytes
Experimental: (§1) After treatment, the cells were incubated in situ with marker substrates for the analysis of phenacetin O-dealkylation (marker for CYP1A2) and midazolam 1′-hydroxylation (marker for CYP3A4/5) by LC/MS/MS.
(§2) Approximately 24 hours after the last treatment, hepatocytes were lysed in TRIzol reagent after the in situ marker substrate incubations, and cell lysates were stored at −75±5° C. For human hepatocyte preparation H971, media from six wells per treatment group was aspirated, and approximately 132 μL TRIzol were added to each well. The cell lysates were mixed by repeated pipetting. Total RNA was isolated from the cell lysates using the TRIzol protocol (Invitrogen) and was purified using the RNeasy Mini Kit (Qiagen Inc.) according to SOP L6161.02. RNA quality and concentration were determined by measuring absorbance at 260 and 280 nm on a BioTek Synergy HT plate reader (BioTek Instruments, Inc.) with KC4 Signature software (version 3.4 Rev 21, BioTek Instruments, Inc.) according to SOP L6162.02. The analysis of RNA integrity was carried out with the RNA 6000 Nano Assay Kit on an Agilent 2100 Bioanalyzer (Agilent Technologies, Inc.) according to SOP L6162.02. Single-stranded cDNA was prepared from RNA with the RT Master Mix using the AB 7300 Real Time PCR system thermocycling program or AB 7900HT Fast Real Time PCR System thermocycling program (Applied Biosystems) according to SOP L6160.04. […] The RT Master Mix was added to each RNA sample to complete the components of the reaction. No template controls (NTCs) were included in the analysis. For the NTC reactions, RNase-free water was added in place of the RNA sample. The cDNA prepared samples were stored at −20±5° C. prior to analysis by qRT-PCR.
(§3) Quantitative RT-PCR was carried out according to SOP L6160.04 (XenoTech, LLC) and the Applied Biosystems protocol. Each PCR was performed in triplicate. A Primer Mix was prepared for each Gene Expression assay. A typical Primer Mix contained TaqMan Universal Master Mix (1×), Gene Expression Assay (1×, 900 nM forward and reverse primers) and RNase-free water. The Reaction Mix was prepared by adding the Primer Mix to cDNA. A percentage of samples (no less than 10%) included NACs. […] The relative quantity of the target cDNA compared with that of the control cDNA (GAPDH) was determined by the ΔΔCt method (Applied Biosystems User Bulletin #2). Relative quantification measures the change in mRNA expression in a test sample relative to that in a control sample (e.g., DMSO). This method assumes that the efficiency of the target amplification and the efficiency of the endogenous control amplification are approximately equal.
(§4) For qRT-PCR, data were processed using the Sequence Detection System (SDS) Software version 1.4, for Relative Quantification (Applied Biosystems). This software analyzes relative gene expression using the comparative Ct method (ΔΔCt), which relates the PCR signal of the target transcript to the PCR signal of the target in an untreated control. Both the treated sample and the untreated control signals are normalized to the endogenous control (GAPDH), for which expression is not affected by treatment and expression is constant throughout the tissue being tested. […] Calculations are as follows: ΔCt=Ct(target)−Ct(endogenous control) 1. ΔΔCt=ΔCt(treated sample)−ΔCt(untreated control) 2. Fold change in expression=2−ΔΔCt 3.
(§5) The level of mRNA expression relative to the positive control was calculated as follows: […]

CYP3A4 mRNA = settings: human, 3 days; for mRNA Percent positive control, CYP3A4: hepatocytes
Experimental: as §1, §2, §3, §4, §5

[1] = tested on: cultured human hepatocytes; type: in vitro ADME
Experimental: Just prior to treatment, on each day of treatment, and just prior to incubation of the marker substrates, spent culture medium (spent dosing media) were collected from the vehicle, laquinimod and Compound 2 treatment groups. Approximately 150 μL was collected from each of three wells, from each aforementioned treatment groups, and pooled for each sample to a final volume of approximately 450 μL. These spent media samples were analyzed for residual laquinimod, Compound 2 and the de-ethylated metabolite (DELAQ).
The concentrations of Compound 2, laquinimod and DELAQ were measured in spent media aliquots from media collected just prior to treatment, on each day of treatment, and just prior to incubation of the marker substrates. The concentration of formed DELAQ was approximately 2-fold higher in the laquinimod media compared to the Compound 2 media. At the 10 μM treatment concentrations of either Compound 2 or laquinimod, the ratio of Compound 2:DELAQ was on average, 40.9 while the ratio of laquinimod:DELAQ was on average, 15.7. This represents an approximately 3-fold increase in the formation of DELAQ from laquinimod compared to Compound 2 and is explained by the presence of deuterium on the ethyl moiety which results in slower N-deethylation.

[2] = tested on: human hepatocyte culture H971; assay: Morphology of cultured human hepatocytes after treatment; type: cell-based; settings: within 24 hours after final treatment
Experimental: At the time of isolation the viability of the human hepatocyte preparation was 70.9%. During and after the 72-hour adaptation period, the culture was observed daily by light microscopy and judged to be morphologically normal with confluency adequate for treatment with test and control articles. Within 24 hours after the final treatment, hepatocytes were photographed to document their morphological integrity and any overt signs of toxicity of the test articles. Representative photomicrographs are maintained at the Testing Facility. […] Prior to and during treatment, human hepatocyte cultures formed confluent monolayers with few intercellular spaces; they were cuboidal and contained intact cell membranes and granular cytoplasm with one or two centrally located nuclei.

SMILES: [2H]C([2H])([2H])C([2H])([2H])N(C(=O)c1c(O)c2c(Cl)cccc2n(C)c1=O)c1ccccc1 [Compound 2, N-D5-ethyl-N-phenyl-1,2-dihydro-4-hydroxy-5-chloro-1-methyl-2-oxoquinoline-3-carboxamide]
- GMS value (group mean score) (MOG induced EAE; 10 mg/kg orally): 0.79 ± 0.2
- MMS value (mean maximal score) (MOG induced EAE; 10 mg/kg orally): 2.1 ± 1.3
- Mean Duration (MOG induced EAE; 10 mg/kg orally): 13.2 ± 7.7 days
- Mean Onset (MOG induced EAE; 10 mg/kg orally): 15.3 ± 6.8 days
- activity in inhibition of EAE clinical signs compared to laquinimod (MOG induced EAE; 10 mg/kg orally): no significant difference in activity
- Mortality (MOG induced EAE; 10 mg/kg orally): 0/15
- % inhibition 1 (according to incidence) (MOG induced EAE; 10 mg/kg orally): 7.1%
- % inhibition 2 (according to MMS) (MOG induced EAE; 10 mg/kg orally): 34.4%
- % inhibition 3 (according to GMS) (MOG induced EAE; 10 mg/kg orally): 64.3%
- Incidence (MOG induced EAE; 10 mg/kg orally): 13/15
- mRNA Fold increase, CYP1A2 (CYP1A2 mRNA; 0.01 μM): 2.84 fold
- mRNA Fold increase, CYP1A2 (CYP1A2 mRNA; 0.05 μM): 4.98 fold
- mRNA Fold increase, CYP1A2 (CYP1A2 mRNA; 0.1 μM): 7.20 fold
- mRNA Fold increase, CYP1A2 (CYP1A2 mRNA; 1 μM): 13.1 fold
- mRNA Fold increase, CYP1A2 (CYP1A2 mRNA; 10 μM): 24.3 fold
- mRNA Percent positive control, CYP1A2 (CYP1A2 mRNA; 0.01 μM): 24.2%
- mRNA Percent positive control, CYP1A2 (CYP1A2 mRNA; 0.05 μM): 52.5%
- mRNA Percent positive control, CYP1A2 (CYP1A2 mRNA; 0.1 μM): 81.7%
- mRNA Percent positive control, CYP1A2 (CYP1A2 mRNA; 1 μM): 159%
- mRNA Percent positive control, CYP1A2 (CYP1A2 mRNA; 10 μM): 307%
- mRNA Fold increase, CYP3A4 (CYP3A4 mRNA; 0.01 μM): 0.437 fold
- mRNA Fold increase, CYP3A4 (CYP3A4 mRNA; 0.05 μM): 0.428 fold
- mRNA Fold increase, CYP3A4 (CYP3A4 mRNA; 0.1 μM): 0.339 fold
- mRNA Fold increase, CYP3A4 (CYP3A4 mRNA; 1 μM): 0.252 fold
- mRNA Fold increase, CYP3A4 (CYP3A4 mRNA; 10 μM): 0.689 fold
- mRNA Percent positive control, CYP3A4 (CYP3A4 mRNA; 0.01 μM): −15.5%
- mRNA Percent positive control, CYP3A4 (CYP3A4 mRNA; 0.05 μM): −15.8%
- mRNA Percent positive control, CYP3A4 (CYP3A4 mRNA; 0.1 μM): −18.2%
- mRNA Percent positive control, CYP3A4 (CYP3A4 mRNA; 1 μM): −20.6%
- mRNA Percent positive control, CYP3A4 (CYP3A4 mRNA; 10 μM): −8.57%
- difference in the Compound 2:DELAQ to laquinimod:DELAQ ratio ([1]; 10 μM): ~3 fold
- ratio of test article:DELAQ in spent media, on average ([1]; 10 μM): 40.9
- cell morphology after treatment [2]: no changes in cell morphology

SMILES: CCN(C(=O)c1c(O)c2c(Cl)cccc2n(C)c1=O)c1ccccc1 [Laquinimod, N-ethyl-N-phenyl-1,2-dihydro-4-hydroxy-5-chloro-1-methyl-2-oxoquinoline-3-carboxamide]
- GMS value (group mean score) (MOG induced EAE; 10 mg/kg orally): 1.14 ± 0.5
- MMS value (mean maximal score) (MOG induced EAE; 10 mg/kg orally): 2.1 ± 1.9
- Mean Duration (MOG induced EAE; 10 mg/kg orally): 9.3 ± 8.3 days
- Mean Onset (MOG induced EAE; 10 mg/kg orally): 21.6 ± 8.4 days
- Mortality (MOG induced EAE; 10 mg/kg orally): 0/15
- % inhibition 1 (according to incidence) (MOG induced EAE; 10 mg/kg orally): 35.7%
- % inhibition 2 (according to MMS) (MOG induced EAE; 10 mg/kg orally): 34.4%
- % inhibition 3 (according to GMS) (MOG induced EAE; 10 mg/kg orally): 48.4%
- % inhibition 3 (according to GMS) (MOG induced EAE; 10 mg/kg orally, listed as laquinimod): 48.4%
- Incidence (MOG induced EAE; 10 mg/kg orally): 9/15
- GMS value (group mean score) (MOG induced EAE; 25 mg/kg orally): 0.5±0.1 and 0.5 ± 0.13
- MMS value (mean maximal score) (MOG induced EAE; 25 mg/kg orally): 1.3±1.8
- Mean Duration (MOG induced EAE; 25 mg/kg orally): 3.0 ± 5.8 days
- Mean Onset (MOG induced EAE; 25 mg/kg orally): 28.0 ± 5.8 days
- Mortality (MOG induced EAE; 25 mg/kg orally): 0/15
- % inhibition 1 (according to incidence) (MOG induced EAE; 25 mg/kg orally): 71.4%
- % inhibition 2 (according to MMS) (MOG induced EAE; 25 mg/kg orally): 59.4%
- % inhibition 3 (according to GMS) (MOG induced EAE; 25 mg/kg orally): 97.7%
- Incidence (MOG induced EAE; 25 mg/kg orally): 4/15
- mRNA Fold increase, CYP1A2 (CYP1A2 mRNA; 0.01 μM): 4.22 fold
- mRNA Fold increase, CYP1A2 (CYP1A2 mRNA; 0.05 μM): 7.90 fold
- mRNA Fold increase, CYP1A2 (CYP1A2 mRNA; 0.1 μM): 9.50 fold
- mRNA Fold increase, CYP1A2 (CYP1A2 mRNA; 1 μM): 16.8 fold
- mRNA Fold increase, CYP1A2 (CYP1A2 mRNA; 10 μM): 20.5 fold
- mRNA Percent positive control, CYP1A2 (CYP1A2 mRNA; 0.01 μM): 42.5%
- mRNA Percent positive control, CYP1A2 (CYP1A2 mRNA; 0.05 μM): 91.1%
- mRNA Percent positive control, CYP1A2 (CYP1A2 mRNA; 0.1 μM): 112%
- mRNA Percent positive control, CYP1A2 (CYP1A2 mRNA; 1 μM): 209%
- mRNA Percent positive control, CYP1A2 (CYP1A2 mRNA; 10 μM): 257%
- mRNA Fold increase, CYP3A4 (CYP3A4 mRNA; 0.01 μM): 0.621 fold
- mRNA Fold increase, CYP3A4 (CYP3A4 mRNA; 0.05 μM): 0.347 fold
- mRNA Fold increase, CYP3A4 (CYP3A4 mRNA; 0.1 μM): 0.427 fold
- mRNA Fold increase, CYP3A4 (CYP3A4 mRNA; 1 μM): 0.286 fold
- mRNA Fold increase, CYP3A4 (CYP3A4 mRNA; 10 μM): 0.636 fold
- mRNA Percent positive control, CYP3A4 (CYP3A4 mRNA; 0.01 μM): −10.4%
- mRNA Percent positive control, CYP3A4 (CYP3A4 mRNA; 0.05 μM): −18.0%
- mRNA Percent positive control, CYP3A4 (CYP3A4 mRNA; 0.1 μM): −15.8%
- mRNA Percent positive control, CYP3A4 (CYP3A4 mRNA; 1 μM): −19.7%
- mRNA Percent positive control, CYP3A4 (CYP3A4 mRNA; 10 μM): −10.0%
- concentration of formed DELAQ in laquinimod media compared to Compound 2 media [1]: approximately 2 fold
- increase in the formation of DELAQ from laquinimod compared to Compound 2 ([1]; 10 μM): approximately 3 fold
- ratio of test article:DELAQ in spent media, on average ([1]; 10 μM): 15.7
- cell morphology after treatment [2]: no changes in cell morphology
